Settings: Liquid

Cc1ccccc1 [toluene]
Settings | viscosity [mPa·s]
298.15 K, 100 kPa | 0.555
298.15 K, 2110 kPa | 0.5649
298.15 K, 4100 kPa | 0.5743
298.15 K, 6100 kPa | 0.585
298.15 K, 8110 kPa | 0.5937
298.15 K, 10110 kPa | 0.6024
323.15 K, 100 kPa | 0.4188
323.15 K, 2080 kPa | 0.429
323.15 K, 4110 kPa | 0.4348
323.15 K, 6000 kPa | 0.4409
323.15 K, 8120 kPa | 0.4493
323.15 K, 10050 kPa | 0.455
323.15 K, 12210 kPa | 0.4637
323.15 K, 15000 kPa | 0.4736
348.15 K, 100 kPa | 0.3331
348.15 K, 2120 kPa | 0.3382
348.15 K, 12110 kPa | 0.3664
348.15 K, 15210 kPa | 0.3759

viscosity [mPa·s], Vibrating wire viscometry
Settings | 100 kPa | 10000 kPa | 20000 kPa | 30000 kPa | 40000 kPa
298.15 K | 0.5551 | 0.6003 | 0.6445 | 0.6953 | 0.751
323.15 K | 0.4223 | 0.4573 | 0.4945 | 0.5313 | 0.5718
348.15 K | 0.3285 | 0.3583 | 0.3875 | 0.4165 | 0.4483

Reference: the NIST ThermoML archive (doi:10.1021/je049636m)
